# From patent publication US5663186A, “Treatment of atherosclerosis with angiotensin II receptor blocking imidazoles” (Merck & Co., Inc., priority 1995, dated 1997)
# Experiments:
# Renal Hypertensives Rats = assay: Antihypertensive effects in renal hypertensive rats (left renal artery ligation); type: in vivo, rat
# Procedure: This procedure increases blood pressure by increasing renin production with consequent elevation of AII levels. Compounds are administered orally at 100 mg/kg and/or intravenously via a cannula in the jugular vein at 10 mg/kg. Arterial blood pressure is continuously measured directly through a carotid artery cannula and recorded using a pressure transducer and a polygraph. Blood pressure levels after treatment are compared to pretreatment levels to determine the antihypertensive effects of the compounds (See Table 1).
# Compound listed in Table 2 was tested in the same manner as described for Table 1, except that in the test for antihypertensive effects in renal hypertensive rats, the compounds were administered orally at 30 mg/kg and intravenously at 3 mg/kg.
# [1] = test system: patients with mild to moderate hypertension; assay: Clinical study: total cholesterol; type: in vivo
# Procedure: (§1) The total, HDL, LDL and VLDL cholesterol levels were measured using the procedures described below:
# Cholesterol esters in the sample are hydrolyzed by cholesterol esterase to cholesterol and free fatty acids. The cholesterol produced in the reaction plus the free cholesterol present in the sample, are oxidized by cholesterol oxidase to form cholesten-3-one and hydrogen peroxide. Peroxidase catalyzes the hydrogen peroxide oxidation and 4-aminoantipyrine(4-AAP) and phenol with subsequent coupling to 3,4-dichlorophenol. The end product is a quinoneimine dye which is read at a primary wavelength of 520 nm. The color formation is proportional to the concentration of cholesterol present. This absorbance value is then compared to the absorbance by a known calibrator. The result is then printed out directly in mg/dL.
# [2] = test system: patients with mild to moderate hypertension; assay: Clinical study: HDL cholesterol; type: in vivo
# Procedure: as §1
# High Density Lipoprotein Cholesterol
# The high density lipoprotein (HDL) cholesterol was measured by analyzing a 2.0 mL volume of non-hemolyzed serum or EDTA plasma(heparinized plasma is not recommended), which has been separated from the cells within 30 minutes of collection. A fasting specimen of at least 12 hours is required for accurate interpretation. In most persons, the plasma cholesterol level is affected very little by a recent meal. However, in some persons an increase of up to 100 mg/dL may be induced by a recent meal. The level of cholesterol in plasma is slightly lower than serum (approximately 3%) due to the fact that the liquid EDTA dilutes the plasma slightly and it somotically draws water out of the erythrocytes.
# The method used for in this procedure utilizes the precipitating properties of phosphotungstate. Addition of the HDL precipitating reagent lowers the pH of the sample to the isoelectric point for the LDL and VLDL. LDL and VLDL molecules at pH 5.7 have overall electrical neutrality.
# Phosphotungstate then selectively forms insoluble ligand complexes with LDL and VLDL. Differences in ionic strength forcefully precipitate these complexes. Centrifugation removes them, leaving the HDL fraction in the supernatant. The resulting supernatant cholesterol (HDL) is then assayed for cholesterol. Cholesterol esters in the sample are hydrolyzed by cholesterol esterase to cholesterol and free fatty acids. The cholesterol produced in the reaction plus the free cholesterol present in the sample, are oxidized by cholesterol oxidase to form cholesten-3-one and hydrogen peroxide. Peroxidase catalyzes the hydrogen peroxide oxidation and 4-aminoantipyrine (4-AAP) and phenol with subsequent coupling to 3,4-dichlorophenol.
# The end product is a quinoneimine dye which is read at a primary wavelength of 520 nm. The color formation is proportional to the concentration of cholesterol present. This absorbance value is then compared to the absorbance by a known calibrator. The result is then printed out directly in mg/dL.
# [3] = test system: patients with mild to moderate hypertension; assay: Clinical study: triglycerides; type: in vivo
# Procedure: (§2) After six weeks the non-responders were titrated to a 100 mg oral dose administered once daily.
# [4] = test system: patients with mild to moderate hypertension; assay: Clinical study: plasma renin activity; type: in vivo
# Procedure: as §2
# [5] = test system: patients with mild to moderate hypertension; assay: Clinical study: sitting diastolic blood pressure; type: in vivo; settings: for Peak Sitting Diastolic Blood Pressure, Mean (on treatment) / Mean Change in Peak Sitting Diastolic Blood Pressure / Change in Peak Sitting Diastolic Blood Pressure, adj. mean: peak (6 hours postdose); for Trough Sitting Diastolic Blood Pressure, Mean (on treatment) / Mean Change in Trough Sitting Diastolic Blood Pressure / Change in Trough Sitting Diastolic Blood Pressure, adj. mean: trough (24 hours postdose)
# Procedure: Sitting Diastolic Blood Pressure Results At Week 6 and 12
# The changes from baseline blood pressure (primary=trough sitting diastolic blod pressure at weeks 6 and 12) were evaluated using a least squares analysis of the means based upon an analysis of covariance (covariate=baseline blood pressure)for a randomized block (block=investigator site) design. An "all-patients-treated" and a "per-protocol" analysis were performed. The study was designed to detect a 5 mmHg difference in mean change between treatments with 95% probability based upon a group size of 86 with an α of 0.05 (two-sided) and a standard deviation of 9 mmHg.
# AT1 receptor subtype = settings: cited from earlier work
smiles,measurement,setting,value
"CCCCc1nc(Cl)c(CO)n1Cc1ccc(-c2ccccc2-c2nnn[nH]2)cc1.[K] [Losartan, 2-n-butyl-4-chloro-1-[(2'-(tetrazol-5-yl)-1,1'-biphenyl-4-yl)-methyl]-1H-imidazole-5-methanol potassium salt]","Antihypertensive Effects in Renal Hypertensives Rats, Intravenous Activity","Renal Hypertensives Rats; intravenous, 10 mg/kg or less",+ (Significant decrease in blood pressure at 10 mg/kg or less)
same,"Antihypertensive Effects in Renal Hypertensives Rats, Oral Activity","Renal Hypertensives Rats; oral, 100 mg/kg or less",+ (Significant decrease in blood pressure at 100 mg/kg or less)
same,"TOTAL CHOLESTEROL, CHANGE MEAN","[1]; LOS 50, week 12, N 107, change from baseline 211.1",-3.9 mg/dL
same,"TOTAL CHOLESTEROL, TREATMENT MEAN","[1]; LOS 50, week 12, N 107, oral once daily",207.3 mg/dL
same,"TOTAL CHOLESTEROL, TREATMENT MEAN","[1]; LOS 50/100, week 12, N 106",204.8 mg/dL
same,"TOTAL CHOLESTEROL, CHANGE MEAN","[1]; LOS 50/100, week 12, N 106, change from baseline 212.6",-7.9 mg/dL
same,"HDL CHOLESTEROL, TREATMENT MEAN","[2]; LOS 50, week 12, N 107",52.1 mg/dL
same,"HDL CHOLESTEROL, CHANGE MEAN","[2]; LOS 50, week 12, N 107, change from baseline 52.5",-0.4 mg/dL
same,"HDL CHOLESTEROL, TREATMENT MEAN","[2]; LOS 50/100, week 12, N 106",52.3 mg/dL
same,"HDL CHOLESTEROL, CHANGE MEAN","[2]; LOS 50/100, week 12, N 106, change from baseline 52.9",-0.5 mg/dL
same,"TRIGLYCERIDES, TREATMENT MEAN","[3]; LOS 50, week 12, N 107",173.1 mg/dL
same,"TRIGLYCERIDES, CHANGE MEAN","[3]; LOS 50, week 12, N 107, change from baseline 170.4",2.7 mg/dL
same,"TRIGLYCERIDES, TREATMENT MEAN","[3]; LOS 50/100, week 12, N 106",187.8 mg/dL
same,"TRIGLYCERIDES, CHANGE MEAN","[3]; LOS 50/100, week 12, N 106, change from baseline 174.4",13.4 mg/dL
same,"PLASMA RENIN ACTIVITY, TREATMENT MEAN","[4]; LOS 50, week 12, N 99",2.889 ng/mL/h
same,"PLASMA RENIN ACTIVITY, CHANGE MEAN","[4]; LOS 50, week 12, N 99, change from baseline 1.300",1.589 ng/mL/h
same,"PLASMA RENIN ACTIVITY, TREATMENT MEAN","[4]; LOS 50/100, week 12, N 96",3.724 ng/mL/h
same,"PLASMA RENIN ACTIVITY, CHANGE MEAN","[4]; LOS 50/100, week 12, N 96, change from baseline 1.473",2.251 ng/mL/h
same,"Category I: Trough SDBP <90 mmHg, number of patients","[5]; 6 wk, 50 mg, of 125",37
same,"Category I: Trough SDBP <90 mmHg, percent of patients","[5]; 6 wk, 50 mg, of 125",29.6%
same,"Category II: Trough SDBP ≥90 mmHg, number of patients","[5]; 6 wk, 50 mg, of 125",20
same,"Category II: Trough SDBP ≥90 mmHg, percent of patients","[5]; 6 wk, 50 mg, of 125",16.0%
same,"Category III: Neither Category I or II, number of patients","[5]; 6 wk, 50 mg, of 125",68
same,"Category III: Neither Category I or II, percent of patients","[5]; 6 wk, 50 mg, of 125",54.4%
same,"Category I: Trough SDBP <90 mmHg, number of patients","[5]; 6 wk, 50/100 mg, of 118",37
same,"Category I: Trough SDBP <90 mmHg, percent of patients","[5]; 6 wk, 50/100 mg, of 118",31.3%
same,"Category II: Trough SDBP ≥90 mmHg, number of patients","[5]; 6 wk, 50/100 mg, of 118",21
same,"Category II: Trough SDBP ≥90 mmHg, percent of patients","[5]; 6 wk, 50/100 mg, of 118",17.7%
same,"Category III: Neither Category I or II, number of patients","[5]; 6 wk, 50/100 mg, of 118",60
same,"Category III: Neither Category I or II, percent of patients","[5]; 6 wk, 50/100 mg, of 118",50.8%
same,"Category I: Trough SDBP <90 mmHg, number of patients","[5]; 12 wk, 50 mg, of 125",40
same,"Category I: Trough SDBP <90 mmHg, percent of patients","[5]; 12 wk, 50 mg, of 125",32.0%
same,"Category II: Trough SDBP ≥90 mmHg, number of patients","[5]; 12 wk, 50 mg, of 125",18
same,"Category II: Trough SDBP ≥90 mmHg, percent of patients","[5]; 12 wk, 50 mg, of 125",14.4%
same,"Category III: Neither Category I or II, number of patients","[5]; 12 wk, 50 mg, of 125",67
same,"Category III: Neither Category I or II, percent of patients","[5]; 12 wk, 50 mg, of 125",53.6%
same,"Category I: Trough SDBP <90 mmHg, number of patients","[5]; 12 wk, 50/100 mg, of 118",37
same,"Category I: Trough SDBP <90 mmHg, percent of patients","[5]; 12 wk, 50/100 mg, of 118",31.3%
same,"Category II: Trough SDBP ≥90 mmHg, number of patients","[5]; 12 wk, 50/100 mg, of 118",24
same,"Category II: Trough SDBP ≥90 mmHg, percent of patients","[5]; 12 wk, 50/100 mg, of 118",20.3%
same,"Category III: Neither Category I or II, number of patients","[5]; 12 wk, 50/100 mg, of 118",57
same,"Category III: Neither Category I or II, percent of patients","[5]; 12 wk, 50/100 mg, of 118",48.3%
same,"Peak Sitting Diastolic Blood Pressure, Mean (on treatment)","[5]; 6 wk, 50 mg, N 118, all-patients-treated",90.2 mmHg
same,Mean Change in Peak Sitting Diastolic Blood Pressure,"[5]; 6 wk, 50 mg, N 118, baseline 99.9",-9.7 mmHg
same,"Change in Peak Sitting Diastolic Blood Pressure, adj. mean","[5]; 6 wk, 50 mg, N 118, least squares",-9.7 mmHg
same,"Peak Sitting Diastolic Blood Pressure, Mean (on treatment)","[5]; 6 wk, 50/100 mg, N 111, all-patients-treated",90.3 mmHg
same,Mean Change in Peak Sitting Diastolic Blood Pressure,"[5]; 6 wk, 50/100 mg, N 111, baseline 99.1",-8.9 mmHg
same,"Change in Peak Sitting Diastolic Blood Pressure, adj. mean","[5]; 6 wk, 50/100 mg, N 111, least squares",-9.0 mmHg
same,"Peak Sitting Diastolic Blood Pressure, Mean (on treatment)","[5]; 12 wk, 50 mg, N 121, all-patients-treated",90.3 mmHg
same,Mean Change in Peak Sitting Diastolic Blood Pressure,"[5]; 12 wk, 50 mg, N 121, baseline 99.8",-9.5 mmHg
same,"Change in Peak Sitting Diastolic Blood Pressure, adj. mean","[5]; 12 wk, 50 mg, N 121, least squares",-9.3 mmHg
same,"Peak Sitting Diastolic Blood Pressure, Mean (on treatment)","[5]; 12 wk, 50/100 mg, N 113, all-patients-treated",89.1 mmHg
same,Mean Change in Peak Sitting Diastolic Blood Pressure,"[5]; 12 wk, 50/100 mg, N 113, baseline 99.2",-10.1 mmHg
same,"Change in Peak Sitting Diastolic Blood Pressure, adj. mean","[5]; 12 wk, 50/100 mg, N 113, least squares",-10.1 mmHg
same,"Trough Sitting Diastolic Blood Pressure, Mean (on treatment)","[5]; 6 wk, 50 mg, N 125, all-patients-treated",95.3 mmHg
same,Mean Change in Trough Sitting Diastolic Blood Pressure,"[5]; 6 wk, 50 mg, N 125, baseline 102.1",-6.9 mmHg
same,"Change in Trough Sitting Diastolic Blood Pressure, adj. mean","[5]; 6 wk, 50 mg, N 125, least squares",-6.9 mmHg
same,"Trough Sitting Diastolic Blood Pressure, Mean (on treatment)","[5]; 6 wk, 50/100 mg, N 118, all-patients-treated",94.3 mmHg
same,Mean Change in Trough Sitting Diastolic Blood Pressure,"[5]; 6 wk, 50/100 mg, N 118, baseline 102.2",-7.9 mmHg
same,"Change in Trough Sitting Diastolic Blood Pressure, adj. mean","[5]; 6 wk, 50/100 mg, N 118, least squares",-7.9 mmHg
same,"Trough Sitting Diastolic Blood Pressure, Mean (on treatment)","[5]; 12 wk, 50 mg, N 125, all-patients-treated",94.2 mmHg
same,Mean Change in Trough Sitting Diastolic Blood Pressure,"[5]; 12 wk, 50 mg, N 125, baseline 102.1",-7.9 mmHg
same,"Change in Trough Sitting Diastolic Blood Pressure, adj. mean","[5]; 12 wk, 50 mg, N 125, least squares",-7.9 mmHg
same,"Trough Sitting Diastolic Blood Pressure, Mean (on treatment)","[5]; 12 wk, 50/100 mg, N 118, all-patients-treated",93.6 mmHg
same,Mean Change in Trough Sitting Diastolic Blood Pressure,"[5]; 12 wk, 50/100 mg, N 118, baseline 102.2",-8.6 mmHg
same,"Change in Trough Sitting Diastolic Blood Pressure, adj. mean","[5]; 12 wk, 50/100 mg, N 118, least squares",-8.6 mmHg
same,"AII antagonism, oral activity",AT1 receptor subtype,orally active A II antagonists
